From patent US20170240513A1, “SUBSTITUTED PYRIMIDINES AS INHIBITORS OF HIF PROLYL HYDROXYLASE” (MERCK SHARP & DOHME CORP., priority 2014, published 2017)

What follows are molecules tested against T1, human HIF-PHD2 (Homo sapiens, UniProt Q9GZT9) (assay: HIF-PHD2 inhibition of HIF-1α peptide hydroxylation (time resolved fluorescence)). Conditions: FLAG-tagged full length PHD2; 0.2 μM 2-oxoglutarate, 0.5 μM HIF-1α peptide.
T1 construct: FLAG-tagged full length PHD2 expressed in and purified from baculovirus-infected Sf9 cells; FLAG; made in house; host or cells: baculovirus-infected Sf9 cells
T1 sequence (Q9GZT9 whole entry): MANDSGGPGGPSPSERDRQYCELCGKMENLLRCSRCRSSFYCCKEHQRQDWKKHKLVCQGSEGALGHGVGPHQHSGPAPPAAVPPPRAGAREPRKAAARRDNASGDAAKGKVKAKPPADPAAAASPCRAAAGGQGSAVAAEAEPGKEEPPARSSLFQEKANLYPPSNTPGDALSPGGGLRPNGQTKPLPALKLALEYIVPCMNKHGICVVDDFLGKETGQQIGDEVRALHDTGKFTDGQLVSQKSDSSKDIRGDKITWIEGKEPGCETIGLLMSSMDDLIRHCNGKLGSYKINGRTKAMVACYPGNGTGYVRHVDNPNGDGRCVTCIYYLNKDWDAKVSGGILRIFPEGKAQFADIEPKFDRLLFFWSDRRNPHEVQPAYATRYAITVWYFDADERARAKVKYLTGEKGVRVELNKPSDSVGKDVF
Type: biochemical
Method: Select examples of assays that may be used to detect favorable activity are disclosed in the following publications: Oehme, F., et al., Anal. Biochem. 330:74-80 (2004); Hirsilä, M, et al., J. Bio. Chem. 278 (33): 30772-30780 (2005); Hyunju, C., et al., Biochem. Biophys. Res. Comm. 330 275-280 (2005); and Hewitson, K. S., et al., Methods in Enzymology, (Oxygen Biology and Hypoxia); Elsevier Publisher (2007), pg. 25-42 (ISSN: 0076-6879).
To each well of a 384-well plate, 1 μL of test compounds in DMSO (final concentration ranging from 0.3 nM to 10 uM) were added into 20 μl of assay buffer (50 mM Tris pH 7.4/0.01% Tween-20/0.1 mg/ml bovine serum albumin/[…]/1 mM sodium ascorbate/20 μg/ml catalase) containing 0.15 μg/ml FLAG-tagged full length PHD2 expressed in and purified from baculovirus-infected Sf9 cells. After a 5 min preincubation at room temperature, the enzymatic reactions were initiated by the addition of 4 μL of substrates {final concentrations of 0.2 μM 2-oxoglutarate and 0.5 μM HIF-1α peptide biotinyl-DLDLEMLAPYIPMDDDFQL (SEQ ID NO: 1)}. After incubation for 45 minutes at room temperature, the reactions were terminated by the addition of a 25 μL quench/detection mix to a final concentration of 1 mM ortho-phenanthroline, 0.1 mM EDTA, 0.5 nM anti-(His)6 LANCE reagent (Perkin-Elmer Life Sciences), 100 nM AF647-labeled streptavidin (Invitrogen), and 2 μg/ml (His)6-VHL complex {S. Tan Protein Expr. Purif. 21, 224-234 (2001)} and the signals were developed for 30 minutes at room temperature. The ratio of time resolved fluorescence signals at 665 and 620 nm was determined, and percent inhibition was calculated relative to the high control samples (DMSO treated) run in parallel, after background subtraction.

Row | IC50 [nM] | Structure (SMILES)
1 | 43.9 | CC(C)OC(=O)OC(C)OC(=O)CNC(=O)c1ncc(C(=O)NC(c2ccccc2)c2ccccc2)c(O)n1 (stereo not drawn) [Ex. 18, 1-((isopropoxycarbonyl)oxy)ethyl 2-(5-(benzhydrylcarbamoyl)-4-hydroxypyrimidine-2-carboxamido)acetate]
2 | 871 | CCOC(=O)C(C)(O)CNC(=O)c1ncc(C(=O)NC(c2ccccc2)c2ccccc2)c(O)n1 (stereo not drawn) [Ex. 4, ethyl 3-(5-(benzhydrylcarbamoyl)-4-hydroxypyrimidine-2-carboxamido)-2-hydroxy-2-methylpropanoate]
3 | 15.9 | CC(C)OC(=O)CCNC(=O)c1ncc(C(=O)NC(c2ccccc2)c2ccccc2)c(O)n1 [Example 6, Isopropyl 3-(5-(benzhydrylcarbamoyl)-4-hydroxypyrimidine-2-carboxamido)propanoate]
4 | 2.81 | CC(C)OC(=O)OCOC(=O)CCNC(=O)c1ncc(C(=O)NC(c2ccccc2)c2ccccc2)c(O)n1 [Ex. 8, ((isopropoxycarbonyl)oxy)methyl 3-(5-(benzhydrylcarbamoyl)-4-hydroxypyrimidine-2-carboxamido)propanoate]
5 | 14.3 | COC(=O)CCNC(=O)c1ncc(C(=O)NC(c2ccccc2)c2ccccc2)c(O)n1 [Ex. 1, Methyl 3-(5-(benzhydrylcarbamoyl)-4-hydroxypyrimidine-2-carboxamido)propanoate]
6 | 159 | CN(C)C(=O)COC(=O)CCNC(=O)c1ncc(C(=O)NC(c2ccccc2)c2ccccc2)c(O)n1 [Ex. 13, 2-(Dimethylamino)-2-oxoethyl 3-(5-(benzhydrylcarbamoyl)-4-hydroxypyrimidine-2-carboxamido)propanoate]
7 | 940 | CCOC(=O)C(C)(O)CNC(=O)c1ncc(C(=O)NC(c2ccccc2)c2ccccc2)c(O)n1 (single isomer, unassigned) [Example 26, Ethyl 3-(5-(benzhydrylcarbamoyl)-4-hydroxypyrimidine-2-carboxamido)-2-hydroxy-2-methylpropanoate]
8 | 41 | CC(C)OC(=O)OCOC(=O)CNC(=O)c1ncc(C(=O)NC(c2ccccc2)c2ccccc2)c(O)n1 [Ex. 20, ((Isopropoxycarbonyl)oxy)methyl 2-(5-(benzhydrylcarbamoyl)-4-hydroxypyrimidine-2-carboxamido)acetate]
9 | 37.2 | CC(C)OC(=O)OC(C)OC(=O)CCNC(=O)c1ncc(C(=O)NC(c2ccccc2)c2ccccc2)c(O)n1 (stereo not drawn) [Ex. 10, 1-((isopropoxycarbonyl)oxy)ethyl 3-(5-(benzhydrylcarbamoyl)-4-hydroxypyrimidine-2-carboxamido)propanoate]
10 | 32.2 | CCOC(=O)OC(C)OC(=O)CNC(=O)c1ncc(C(=O)NC(c2ccccc2)c2ccccc2)c(O)n1 (stereo not drawn) [Ex. 19, 1-((ethoxycarbonyl)oxy)ethyl 2-(5-(benzhydrylcarbamoyl)-4-hydroxypyrimidine-2-carboxamido)acetate]
11 | 46.4 | CCOC(=O)[C@H](O)CNC(=O)c1ncc(C(=O)NC(c2ccccc2)c2ccccc2)c(O)n1 [Ex. 5, (R)-ethyl 3-(5-(benzhydrylcarbamoyl)-4-hydroxypyrimidine-2-carboxamido)-2-hydroxypropanoate]
12 | 6.67 | CCOC(=O)OC(C)OC(=O)CCNC(=O)c1ncc(C(=O)NC(c2ccccc2)c2ccccc2)c(O)n1 (stereo not drawn) [Ex. 9, 1-((ethoxycarbonyl)oxy)ethyl 3-(5-(benzhydrylcarbamoyl)-4-hydroxypyrimidine-2-carboxamido)propanoate]
13 | 42.1 | CC(OC(=O)CCNC(=O)c1ncc(C(=O)NC(c2ccccc2)c2ccccc2)c(O)n1)OC(=O)OC1CCCCC1 (stereo not drawn) [Ex. 11, 1-(((cyclohexyloxy)carbonyl)oxy)ethyl 3-(5-(benzhydrylcarbamoyl)-4-hydroxypyrimidine-2-carboxamido)propanoate]
14 | 2.46 | CCOC(=O)OCOC(=O)CCNC(=O)c1ncc(C(=O)NC(c2ccccc2)c2ccccc2)c(O)n1 [Ex. 12, ((ethoxycarbonyl)oxy)methyl 3-(5-(benzhydrylcarbamoyl)-4-hydroxypyrimidine-2-carboxamido)propanoate]
15 | 879 | CCOC(=O)C(C)(O)CNC(=O)c1ncc(C(=O)NC(c2ccccc2)c2ccccc2)c(O)n1 (single isomer, unassigned) [Example 27, Ethyl 3-(5-(benzhydrylcarbamoyl)-4-hydroxypyrimidine-2-carboxamido)-2-hydroxy-2-methylpropanoate]

Second part, the molecule before the results:

Row | Structure (SMILES) | IC50 [nM]
16 | O=C1CN(C(=O)c2ncc(C(=O)NC(c3ccccc3)c3ccccc3)c(O)n2)CO1 [Ex. 17, N-Benzhydryl-4-hydroxy-2-(5-oxooxazolidine-3-carbonyl)pyrimidine-5-carboxamide] | 15.1
17 | CCOC(=O)C1(CNC(=O)c2ncc(C(=O)NC(c3ccccc3)c3ccccc3)c(O)n2)CC1 [Ex. 3, ethyl 1-((5-(benzhydrylcarbamoyl)-4-hydroxypyrimidine-2-carboxamido)methyl)cyclopropanecarboxylate] | 35.6
18 | O=C(NC[C@@H](O)C(=O)OC1CCCCC1O)c1ncc(C(=O)NC(c2ccccc2)c2ccccc2)c(O)n1 (stereo partly drawn) [Ex. 25, (2R)-2-Hydroxycyclohexyl 3-(5-(benzhydrylcarbamoyl)-4-hydroxypyrimidine-2-carboxamido)-2-hydroxypropanoate] | 182
19 | CCOC(=O)OCOC(=O)CNC(=O)c1ncc(C(=O)NC(c2ccccc2)c2ccccc2)c(O)n1 [Ex. 22] | 14.7
20 | O=C1CCN(C(=O)c2ncc(C(=O)NC(c3ccccc3)c3ccccc3)c(O)n2)CO1 [Ex. 14, N-Benzhydryl-4-hydroxy-2-(6-oxo-1,3-oxazinane-3-carbonyl)pyrimidine-5-carboxamide] | 11.2
21 | CC(=O)OCOC(=O)CCNC(=O)c1ncc(C(=O)NC(c2ccccc2)c2ccccc2)c(O)n1 [Ex. 7, Acetoxymethyl 3-(5-(benzhydrylcarbamoyl)-4-hydroxypyrimidine-2-carboxamido)propanoate] | 3.11
22 | CC(C)C(=O)OCOC(=O)CNC(=O)c1ncc(C(=O)NC(c2ccccc2)c2ccccc2)c(O)n1 [Ex. 21, (2-(5-(benzhydrylcarbamoyl)-4-hydroxypyrimidine-2-carboxamido)acetoxy)methyl isobutyrate] | 35
23 | O=C(CNC(=O)c1ncc(C(=O)NC(c2ccccc2)c2ccccc2)c(O)n1)Oc1ccc2c(c1)CCC2 [Ex. 15, 2,3-Dihydro-1H-inden-5-yl 2-(5-(benzhydrylcarbamoyl)-4-hydroxypyrimidine-2-carboxamido)acetate] | 11.2
24 | O=C(CCNC(=O)c1ncc(C(=O)NC(c2ccccc2)c2ccccc2)c(O)n1)OCCN1CCOCC1 [Ex. 2, 2-morpholinoethyl 3-(5-(benzhydrylcarbamoyl)-4-hydroxypyrimidine-2-carboxamido)propanoate] | 24.9
25 | CC(OC(=O)[C@H](O)CNC(=O)c1ncc(C(=O)NC(c2ccccc2)c2ccccc2)c(O)n1)C(=O)OCc1ccccc1 (stereo partly drawn) [Ex. 23, (2R)-1-(Benzyloxy)-1-oxopropan-2-yl 3-(5-(benzhydrylcarbamoyl)-4-hydroxypyrimidine-2-carboxamido)-2-hydroxypropanoate] | 11.2
26 | CN(C)C(=O)COC(=O)CNC(=O)c1ncc(C(=O)NC(c2ccccc2)c2ccccc2)c(O)n1 [Ex. 16, 2-(dimethylamino)-2-oxoethyl 2-(5-(benzhydrylcarbamoyl)-4-hydroxypyrimidine-2-carboxamido)acetate] | 105
27 | CCOC(=O)C(OC(=O)[C@H](O)CNC(=O)c1ncc(C(=O)NC(c2ccccc2)c2ccccc2)c(O)n1)c1ccccc1 (stereo partly drawn) [Ex. 24, (2R)-2-ethoxy-2-oxo-1-phenylethyl 3-(5-(benzhydrylcarbamoyl)-4-hydroxypyrimidine-2-carboxamido)-2-hydroxypropanoate] | 326
28 | CC(C)OC(=O)COC(=O)C(C)CNC(=O)c1ncc(C(=O)NC(c2ccccc2)c2ccccc2)c(O)n1 (single isomer, unassigned) [Ex. 30, 2-Isopropoxy-2-oxoethyl 3-(5-(benzhydrylcarbamoyl)-4-hydroxypyrimidine-2-carboxamido)-2-methylpropanoate] | 179
29 | O=C(CCNC(=O)c1ncc(C(=O)NC(c2ccccc2)c2ccccc2)c(O)n1)OCc1ccccc1 [Example 28] | 24.3
30 | CC(C)OC(=O)COC(=O)[C@H]1C[C@H](NC(=O)c2ncc(C(=O)NC(c3ccccc3)c3ccccc3)c(O)n2)C1 [Ex. 29, (1R,3R)-2-isopropoxy-2-oxoethyl 3-(5-(benzhydrylcarbamoyl)-4-hydroxypyrimidine-2-carboxamido)cyclobutanecarboxylate] | 171
